Results from patent publication US20260103466A1, “PROCESS FOR THE MANUFACTURE OF SALTS AND CRYSTALLINE FORMS OF 1-(8-BROMOPYRIDO[2,3-E][1,2,4]TRIAZOLO[4,3-A]PYRAZIN-4-YL)-NMETHYLAZETIDIN-3-AMINE AND NOVEL CRYSTALLINE FORMS” (JW PHARMACEUTICAL CORPORATION, priority 2022, published 2026).

Columns and labels:
histamine 4 receptor = histamine 4 receptor (Homo sapiens, UniProt Q9H3N8); conditions: cited from earlier work
[1] = test system: inflammatory cells such as mast cells and eosinophils; conditions: cited from earlier work
[2] = Solubility in various solvents; assay type: physicochemical
[3] = Stability towards hydrolysis and pH during processing in aqueous environment; assay type: physicochemical; conditions: compared to the hydrogen sulfate salt; for Stability towards hydrolysis: processing in aqueous, elevated temperatures at least as high as 50° C.
[4] = Solid form stability on drying and in water-containing environments; assay type: physicochemical; conditions: for Stability during gentle drying: polymorphic forms of the methyl sulfate salt

histamine 4 receptor, sequence (Q9H3N8 whole entry): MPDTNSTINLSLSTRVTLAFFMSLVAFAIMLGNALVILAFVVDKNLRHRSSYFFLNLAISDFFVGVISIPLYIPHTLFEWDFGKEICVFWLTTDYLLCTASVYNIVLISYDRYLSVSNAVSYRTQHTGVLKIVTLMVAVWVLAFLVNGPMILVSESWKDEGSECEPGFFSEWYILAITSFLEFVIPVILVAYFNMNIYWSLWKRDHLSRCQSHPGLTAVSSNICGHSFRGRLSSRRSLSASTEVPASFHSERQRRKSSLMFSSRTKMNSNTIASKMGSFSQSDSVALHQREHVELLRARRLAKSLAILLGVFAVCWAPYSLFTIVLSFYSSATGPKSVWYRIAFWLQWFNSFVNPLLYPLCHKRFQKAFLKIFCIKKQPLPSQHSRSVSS

For `CNC1CN(c2nc3ncc(Br)cc3n3cnnc23)C1` [1-(8-bromopyrido[2,3-e][1,2,4]triazolo[4,3-a]pyrazin-4-yl)-N-methylazetidin-3-amine], the “histamine 4 receptor inhibitory effect” value (histamine 4 receptor) is listed as “strong” and the “effects against histamine induced infiltration of inflammatory cells” value [1] is listed as “suppressive effects”.
Molecule “1-(8-bromopyrido[2,3-e][1,2,4]triazolo[4,3-a]pyrazin-4-yl)-N-methylazetidin-3-amine ethyl sulfate” has a Solubility ([2]; solvent 1,3-dimethyl-2-imidazolidinone, ethyl sulfate form A) of 17000 µg/mL, a Solubility ([2]; solvent 1-propanol, ethyl sulfate form A) of 37 µg/mL and a Solubility ([2]; solvent 2-propanol, ethyl sulfate form A) of 4.7 µg/mL. For the same molecule, the Solubility ([2]; solvent Acetone, ethyl sulfate form A) was 6.2 µg/mL, the Solubility ([2]; solvent Acetonitrile, ethyl sulfate form A) was 45 µg/mL and the Solubility ([2]; solvent Cyclohexane, ethyl sulfate form A) was less than 3.5 µg/mL. The Solubility ([2]; solvent DCM, ethyl sulfate form A) was less than 3.5 µg/mL, the Solubility ([2]; solvent DMF, ethyl sulfate form A) was 5900 µg/mL and the Solubility ([2]; solvent DMSO, ethyl sulfate form A) was 76000 µg/mL. It also gave a Solubility ([2]; solvent EtOAc, ethyl sulfate form A) of less than 3.5 µg/mL, a Solubility ([2]; solvent EtOH, ethyl sulfate form A) of 120 µg/mL and a Solubility ([2]; solvent Isoamyl alcohol, ethyl sulfate form A) of 23 µg/mL. It also gave a Solubility ([2]; solvent MTBE, ethyl sulfate form A) of less than 3.5 µg/mL, a Solubility ([2]; solvent MeOH, ethyl sulfate form A) of 1600 µg/mL and a Solubility ([2]; solvent Methyl ethyl ketone, ethyl sulfate form A) of 200 µg/mL. For the same molecule, the Solubility ([2]; solvent Toluene, ethyl sulfate form A) was less than 3.5 µg/mL, the “pH in aqueous environment” value [3] was “more neutral” and the Stability towards hydrolysis [3] was “much more stable”.
For “1-(8-bromopyrido[2,3-e][1,2,4]triazolo[4,3-a]pyrazin-4-yl)-N-methylazetidin-3-amine methyl sulfate”, the “Solubility (in words)” value ([2]; in 1-propanol acetonitrile and ethanol) was “intermediate”, the “Solubility (in words)” value ([2]; in 1-propanol:H2O (1:5) and DMSO) was “very high” and the “Solubility (in words)” value ([2]; in THF, EtOAC, Toluene, MTBE and methyl ethyl ketone) was “very low”. The “Solubility (in words)” value ([2]; in a number of solvents) was “relatively high”, the “Solubility (in words)” value ([2]; in isoamyl alcohol and 2-propanol) was “low” and the “Solubility (in words)” value ([2]; in methanol and DMF) was “high”. For the same molecule, the Solubility ([2]; solvent 1-propanol/H2O (1:5), solid form A + B) was 44000 µg/mL, the Solubility ([2]; solvent 1-propanol, solid form B) was 50 µg/mL and the Solubility ([2]; solvent 2-propanol, solid form A + B) was 16 µg/mL. The Solubility ([2]; solvent Acetone, solid form B) was less than 3 µg/mL, the Solubility ([2]; solvent Acetonitrile, solid form B) was 55 µg/mL and the Solubility ([2]; solvent DMF, solid form B) was 8200 µg/mL. For the same molecule, the Solubility ([2]; solvent DMSO, solid form A + C) was “>/=69000 μg/ml”, the Solubility ([2]; solvent EtOAc, solid form B) was less than 3 µg/mL and the Solubility ([2]; solvent EtOH, solid form B) was 110 µg/mL. For the same molecule, the Solubility ([2]; solvent Isoamyl alcohol, solid form A + B) was 6.3 µg/mL, the Solubility ([2]; solvent MTBE, solid form A + B) was less than 3 µg/mL and the Solubility ([2]; solvent MeOH, solid form B) was 1600 µg/mL. The Solubility ([2]; solvent Methyl ethyl ketone, solid form B) was less than 3 µg/mL, the Solubility ([2]; solvent THF, solid form B) was less than 3 µg/mL and the Solubility ([2]; solvent Toluene, solid form A + B) was less than 3 µg/mL. The “pH in aqueous environment” value [3] was “more neutral” and the Stability towards hydrolysis [3] was “much more stable”.
In the case of `CNC1CN(c2nc3ncc(Br)cc3n3cnnc23)C1.CS(=O)(=O)O` [methane sulfonate salt, 1-(8-bromopyrido[2,3-e][1,2,4]triazolo[4,3-a]pyrazin-4-yl)-N-methylazetidin-3-amine methane sulfonate], the “pH in aqueous environment” value [3] is reported as “more neutral” and the Stability towards hydrolysis [3] is reported as “much more stable”.
In the case of `CNC1CN(c2nc3ncc(Br)cc3n3cnnc23)C1.COS(=O)(=O)O` [Form B, 1-(8-bromopyrido[2,3-e][1,2,4]triazolo[4,3-a]pyrazin-4-yl)-N-methylazetidin-3-amine methyl sulfate anhydrate], the “Stability in water-containing environments” value ([4]; environments containing 60% water) is reported as “stable” and the “Stability during gentle drying” value [4] is reported as “stable”.
In the case of “1-(8-bromopyrido[2,3-e][1,2,4]triazolo[4,3-a]pyrazin-4-yl)-N-methylazetidin-3-amine methyl sulfate monohydrate [form A]”, the “Drying behaviour of crystal lattice” value ([4]; freeze dryer or vacuum oven at 60° C.) is reported as “without collapsing the crystal lattice” and the “Stability during gentle drying” value [4] is reported as “stable”.
